For 1 molecule, IC50 results are on record in BindingDB's records for doi:10.1124/jpet.103.059675 (Wyeth Research, 2004).

Assay [1] concerns the target Disintegrin and metalloproteinase domain-containing protein 17 (Homo sapiens, UniProt P78536). As to the kind of experiment: TACE Inhibition Assay. As to conditions: pH 7.4; 22 °C. The procedure:
Compounds were tested for their ability to inhibit the cleavage of the substrate by the purified enzyme in a fluorescence-based fluorescence resonance energy transfer (FRET) assay. The human TACE protein was pretreated with the inhibitors for 10 min at room temperature. The reaction was initiated by the addition of pro-TNF-alpha peptide to the TACE protein, and the increase in fluorescence was monitored at excitation of 320 nm and emission of 420 nm over a period of 10 min. Under this assay condition, the IC50 value is very close to the Ki value.

Assay [2] concerns the target 72 kDa type IV collagenase (Homo sapiens, UniProt P08253). The experiment in a line: MMP Inhibition Assay. As to conditions: pH 7.4; 22 °C. The procedure: (§1) A continuous assay was used in which the substrate is a synthetic peptide containing a fluorescent group (7-methoxycoumarin), which is quenched by energy transfer to a 2,4-dinitrophenyl group. […] The enzymatic reactions were initiated by adding the substrate, and the initial rate of the cleavage reaction was determined immediately after substrate addition.

The target of assay [3] is T1, Interstitial collagenase (Homo sapiens, UniProt P03956).
T1 sequence (P03956 whole entry): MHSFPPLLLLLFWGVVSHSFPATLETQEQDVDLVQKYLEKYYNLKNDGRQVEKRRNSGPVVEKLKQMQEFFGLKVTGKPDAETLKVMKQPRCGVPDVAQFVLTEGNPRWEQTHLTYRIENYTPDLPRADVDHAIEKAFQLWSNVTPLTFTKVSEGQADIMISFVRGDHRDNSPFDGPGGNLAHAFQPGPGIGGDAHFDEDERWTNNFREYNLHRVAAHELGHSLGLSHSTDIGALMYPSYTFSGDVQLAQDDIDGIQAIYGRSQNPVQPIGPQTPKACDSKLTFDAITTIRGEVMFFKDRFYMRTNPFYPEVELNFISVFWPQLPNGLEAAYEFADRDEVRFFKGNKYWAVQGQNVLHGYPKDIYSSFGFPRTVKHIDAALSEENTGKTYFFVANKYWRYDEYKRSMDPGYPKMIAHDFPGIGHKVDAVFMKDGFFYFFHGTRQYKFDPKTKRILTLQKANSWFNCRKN
The experiment in a line: MMP Inhibition Assay. As to conditions: pH 7.4; 22 °C. As for the experimental part:
as §1

In assay [4] the target is T2, Matrilysin (Homo sapiens, UniProt P09237).
T2 sequence (P09237 whole entry): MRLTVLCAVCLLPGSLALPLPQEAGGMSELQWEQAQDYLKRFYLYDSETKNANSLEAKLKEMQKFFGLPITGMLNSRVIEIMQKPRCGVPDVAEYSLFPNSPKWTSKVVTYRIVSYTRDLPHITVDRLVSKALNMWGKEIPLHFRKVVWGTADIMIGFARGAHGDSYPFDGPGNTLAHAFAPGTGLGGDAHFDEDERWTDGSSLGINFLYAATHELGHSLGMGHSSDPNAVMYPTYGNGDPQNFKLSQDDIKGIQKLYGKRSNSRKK
The experiment in a line: MMP Inhibition Assay. As to conditions: pH 7.4; 22 °C. As for the experimental part: as §1

For assay [5], the target named is Matrix metalloproteinase-14 (Homo sapiens, UniProt P50281). As to the kind of experiment: MMP Inhibition Assay. The conditions noted are these: pH 7.4; 22 °C. The procedure: as §1
Assay [6] has as its target T3, A disintegrin and metalloproteinase with thrombospondin motifs 4 (Homo sapiens, UniProt O75173).
T3 sequence (O75173 whole entry): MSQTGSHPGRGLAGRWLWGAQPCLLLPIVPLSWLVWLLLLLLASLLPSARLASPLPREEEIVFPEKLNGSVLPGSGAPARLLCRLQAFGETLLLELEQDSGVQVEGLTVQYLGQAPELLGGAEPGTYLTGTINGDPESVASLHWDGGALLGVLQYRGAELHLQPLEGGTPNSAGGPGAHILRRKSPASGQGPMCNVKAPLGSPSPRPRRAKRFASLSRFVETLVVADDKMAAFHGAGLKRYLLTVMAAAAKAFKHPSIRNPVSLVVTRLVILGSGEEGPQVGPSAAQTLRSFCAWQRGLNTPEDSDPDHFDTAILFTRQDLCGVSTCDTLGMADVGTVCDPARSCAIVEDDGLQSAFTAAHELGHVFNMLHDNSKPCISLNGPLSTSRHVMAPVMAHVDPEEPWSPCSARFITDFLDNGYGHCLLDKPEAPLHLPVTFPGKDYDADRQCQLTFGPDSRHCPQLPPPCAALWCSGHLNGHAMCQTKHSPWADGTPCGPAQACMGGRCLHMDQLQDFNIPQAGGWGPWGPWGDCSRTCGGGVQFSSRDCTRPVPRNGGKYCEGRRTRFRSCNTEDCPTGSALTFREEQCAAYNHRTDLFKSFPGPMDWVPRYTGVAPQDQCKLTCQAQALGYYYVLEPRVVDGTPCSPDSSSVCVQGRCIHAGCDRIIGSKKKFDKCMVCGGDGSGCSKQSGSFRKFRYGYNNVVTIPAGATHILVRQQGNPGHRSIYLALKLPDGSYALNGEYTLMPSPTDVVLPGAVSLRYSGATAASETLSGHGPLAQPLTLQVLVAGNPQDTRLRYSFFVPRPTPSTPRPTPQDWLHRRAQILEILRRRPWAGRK
As to the kind of experiment: Aggrecanase-1 Inhibition Assay. As to conditions: pH 7.5; 37 °C. The procedure:
The recombinant Agg-1 proteins pretreated with the various concentrations of the compound for 10 to 15 min. The reaction was initiated by addition of the WAAG-3R substrate at a final concentration of 25 uM. The reaction is monitored at excitation of 340 nm and emission of 420 nm over a period of 30 min in a fluorimeter (GeminiXS; Molecular Devices Corp., Sunnyvale, CA).

Disintegrin and metalloproteinase domain-containing protein 17, sequence (P78536 whole entry, the tested form may be a part): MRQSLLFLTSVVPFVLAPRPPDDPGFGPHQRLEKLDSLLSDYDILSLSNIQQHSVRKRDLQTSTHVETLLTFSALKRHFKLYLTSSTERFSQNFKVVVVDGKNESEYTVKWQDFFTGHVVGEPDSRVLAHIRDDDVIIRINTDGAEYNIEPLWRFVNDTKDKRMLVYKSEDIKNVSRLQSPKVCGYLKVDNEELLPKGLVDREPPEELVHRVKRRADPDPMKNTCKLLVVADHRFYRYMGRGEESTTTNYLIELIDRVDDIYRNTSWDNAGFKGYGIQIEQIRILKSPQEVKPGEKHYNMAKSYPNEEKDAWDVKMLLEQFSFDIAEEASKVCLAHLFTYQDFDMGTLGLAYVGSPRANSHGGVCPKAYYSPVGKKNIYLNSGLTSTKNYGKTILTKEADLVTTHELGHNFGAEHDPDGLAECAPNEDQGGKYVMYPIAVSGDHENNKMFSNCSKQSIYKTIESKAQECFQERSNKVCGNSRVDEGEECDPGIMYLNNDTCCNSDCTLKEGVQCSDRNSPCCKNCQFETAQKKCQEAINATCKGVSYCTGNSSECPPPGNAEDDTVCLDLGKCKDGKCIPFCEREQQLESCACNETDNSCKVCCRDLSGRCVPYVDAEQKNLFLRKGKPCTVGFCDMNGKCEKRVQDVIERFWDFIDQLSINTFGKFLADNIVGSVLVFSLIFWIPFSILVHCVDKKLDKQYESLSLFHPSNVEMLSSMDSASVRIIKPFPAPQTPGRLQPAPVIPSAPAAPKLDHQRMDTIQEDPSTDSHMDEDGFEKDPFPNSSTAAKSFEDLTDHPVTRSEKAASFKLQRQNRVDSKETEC
72 kDa type IV collagenase, sequence (P08253 whole entry): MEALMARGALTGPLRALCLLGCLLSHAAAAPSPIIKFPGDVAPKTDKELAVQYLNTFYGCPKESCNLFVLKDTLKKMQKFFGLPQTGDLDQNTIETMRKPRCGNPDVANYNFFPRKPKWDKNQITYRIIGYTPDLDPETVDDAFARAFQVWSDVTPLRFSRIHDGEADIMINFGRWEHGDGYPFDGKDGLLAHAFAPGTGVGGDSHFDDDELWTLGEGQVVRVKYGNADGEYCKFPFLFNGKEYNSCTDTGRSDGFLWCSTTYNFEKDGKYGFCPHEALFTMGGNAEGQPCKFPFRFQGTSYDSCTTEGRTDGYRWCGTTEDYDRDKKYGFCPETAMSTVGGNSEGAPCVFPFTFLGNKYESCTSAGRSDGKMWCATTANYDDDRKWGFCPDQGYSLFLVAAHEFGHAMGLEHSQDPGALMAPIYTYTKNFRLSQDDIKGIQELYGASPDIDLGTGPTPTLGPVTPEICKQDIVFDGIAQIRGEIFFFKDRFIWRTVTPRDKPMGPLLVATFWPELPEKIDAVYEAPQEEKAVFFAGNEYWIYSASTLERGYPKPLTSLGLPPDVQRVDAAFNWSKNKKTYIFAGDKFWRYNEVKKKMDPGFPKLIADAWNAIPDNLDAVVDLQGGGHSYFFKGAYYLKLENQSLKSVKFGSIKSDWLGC

With `CC#CCOc1ccc(S(=O)(=O)N2CCSC(C)(C)[C@@H]2C(=O)NO)cc1` [(3S)-4-{[4-(but-2-yn-1-yloxy)benzene]sulfonyl}-N-hydroxy-2,2-dimethylthiomorpholine-3-carboxamide], the IC50 in assay [1] was determined as 0.0084 µM; in assay [2], 0.0047 µM; in assay [3], 0.0066 µM; in assay [4], 0.026 µM; in assay [5], 0.026 µM; in assay [6] it was 0.1 µM.
